Where two headings read alike, the source gives them in different places.
Key:
PARP1 = test: Western blot, PARP1 expression in MCF-7 cells; format: cell-based; conditions: MCF-7, 48 h treatment
Procedure: (§1) Following a 48 h treatment, cellular proteins were extracted using RIPA cell lysis buffer containing protease and phosphatase inhibitor cocktail. The protein concentration was assessed by using a BCA assay. Subsequently, equal amounts of these proteins were loaded onto an SDS-PAGE gel and transferred onto a PVDF membrane. The protein-loaded membrane was then blocked using a commercial blocking solution (Beyotime, China) and sequentially incubated with primary and secondary antibodies. Protein bands were visualized using an ECL chemiluminescence kit and quantified using ImageJ software.

E2F2 = test: Western blot, E2F2 in MCF-7 cells; format: cell-based; conditions: MCF-7, 48 h
Procedure: as §1

Rad51 = test: Western blot, Rad51 in MCF-7 cells; format: cell-based; conditions: MCF-7, 48 h
Procedure: as §1

BRD4 BD2 = BRD4 BD2 (Homo sapiens, UniProt O60885); test: BRD TR-FRET assay, BRD4 BD2; format: binding
Procedure: (§2) The assay was performed by TR-FRET technology using a BRD and its corresponding ligand (BET). The TR-FRET signal from the assay is correlated with the amount of ligand binding to the bromodomain. All of the binding reactions were conducted at room temperature. The 20 μL reaction mixture in Assay Buffer contains either bromodomains, BET Ligand, and the indicated amount of inhibitor. For the negative control (blank), 5 μL of the assay buffer was added instead of the BET ligand. The reaction mixture was incubated for 120 min. After the incubation with the ligand, the TR-FRET signal was measured using a Tecan Infinite M1000 plate reader.

BRD3 = BRD3 (Homo sapiens, UniProt Q15059); test: BRD TR-FRET assay, BRD3; format: binding
Sequence of BRD3 (Q15059 whole entry): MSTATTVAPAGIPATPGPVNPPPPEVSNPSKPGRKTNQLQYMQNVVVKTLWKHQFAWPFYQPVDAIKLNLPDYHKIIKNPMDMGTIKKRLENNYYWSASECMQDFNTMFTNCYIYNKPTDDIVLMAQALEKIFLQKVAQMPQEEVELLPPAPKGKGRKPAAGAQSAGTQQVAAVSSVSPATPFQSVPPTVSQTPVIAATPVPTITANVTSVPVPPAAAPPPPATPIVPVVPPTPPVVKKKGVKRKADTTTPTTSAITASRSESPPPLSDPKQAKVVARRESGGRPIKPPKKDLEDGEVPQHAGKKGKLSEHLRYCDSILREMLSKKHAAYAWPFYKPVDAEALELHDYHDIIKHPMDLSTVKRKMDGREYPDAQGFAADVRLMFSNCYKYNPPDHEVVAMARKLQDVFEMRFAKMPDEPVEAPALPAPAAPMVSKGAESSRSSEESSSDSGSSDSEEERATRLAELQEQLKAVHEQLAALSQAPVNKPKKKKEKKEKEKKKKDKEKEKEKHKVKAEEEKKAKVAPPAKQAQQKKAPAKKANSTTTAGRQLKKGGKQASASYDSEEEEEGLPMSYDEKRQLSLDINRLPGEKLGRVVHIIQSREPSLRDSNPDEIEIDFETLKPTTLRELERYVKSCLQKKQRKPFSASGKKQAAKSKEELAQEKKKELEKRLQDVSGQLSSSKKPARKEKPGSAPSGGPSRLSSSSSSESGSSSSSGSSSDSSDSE
Procedure: as §2

MCF-7 cells = test: Alkaline comet assay; format: cell-based; conditions: 4 and 8 μM, 48 h, MCF-7, compared to control
Procedure: The Alkaline comet assay was executed in accordance with the manufacturer’s instructions. Following a 48 h treatment period, cells were harvested and combined with low melting point agarose. The resulting mixture was layered onto slides coated with agarose as a normal melting point agarose. Subsequently, the cells on the slides were lysed overnight at 4 °C and then unwound in an alkaline unwinding solution for 30 min at room temperature. Following electrophoresis, the samples were neutralized and stained with propidium iodide. The outcomes were visualized using a confocal microscope (Nikon A1 HD25), with three random images captured from each slide.

Bcl-2 = test: Western blot, Bcl-2 in MCF-7 cells; format: cell-based; conditions: MCF-7, 48 h, dose-dependent
Procedure: as §1

BRD4 BD1 = BRD4 BD1 (Homo sapiens, UniProt O60885); test: BRD TR-FRET assay, BRD4 BD1; format: binding
Procedure: as §2

BRD2 = BRD2 (Homo sapiens, UniProt P25440); test: BRD TR-FRET assay, BRD2; format: binding
Sequence of BRD2 (P25440 whole entry): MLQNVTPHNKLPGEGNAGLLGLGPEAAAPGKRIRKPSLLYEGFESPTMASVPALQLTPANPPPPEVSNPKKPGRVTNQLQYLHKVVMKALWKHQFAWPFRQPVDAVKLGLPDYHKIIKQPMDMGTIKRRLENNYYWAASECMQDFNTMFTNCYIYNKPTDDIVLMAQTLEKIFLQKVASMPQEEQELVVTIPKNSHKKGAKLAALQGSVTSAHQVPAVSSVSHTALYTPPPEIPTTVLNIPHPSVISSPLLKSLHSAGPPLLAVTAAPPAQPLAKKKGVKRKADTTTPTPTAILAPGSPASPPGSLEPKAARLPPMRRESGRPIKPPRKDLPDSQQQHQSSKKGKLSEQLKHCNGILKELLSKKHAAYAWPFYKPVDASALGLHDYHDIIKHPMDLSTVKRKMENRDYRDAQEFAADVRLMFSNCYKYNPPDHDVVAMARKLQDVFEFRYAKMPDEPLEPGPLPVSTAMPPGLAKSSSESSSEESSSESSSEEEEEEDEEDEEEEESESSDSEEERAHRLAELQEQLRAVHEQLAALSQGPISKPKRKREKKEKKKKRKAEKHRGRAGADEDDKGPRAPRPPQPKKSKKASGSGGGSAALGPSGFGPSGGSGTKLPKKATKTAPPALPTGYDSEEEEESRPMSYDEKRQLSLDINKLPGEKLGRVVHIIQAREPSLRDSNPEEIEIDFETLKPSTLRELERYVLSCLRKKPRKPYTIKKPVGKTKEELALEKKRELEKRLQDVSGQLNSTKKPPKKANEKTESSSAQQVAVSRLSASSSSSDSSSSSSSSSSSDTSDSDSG
Procedure: as §2

BRD4 = BRD4 (Homo sapiens, UniProt O60885); test: BRD TR-FRET assay, BRD4; format: binding
Procedure: as §2

- IC50 (BRD4 BD2): 801 ± 238 nM
- IC50 (BRD3): 4790 ± 1360 nM
- IC50 (BRD4 BD1): 204 ± 68 nM
- selectivity BRD4 BD1 over BRD4 BD2 (BRD4 BD1; IC50 BD1 vs BD2): four times more potent
- IC50 (BRD2): 6830 ± 2200 nM
- IC50 (BRD4): 1210 ± 324 nM
- ligand efficiency index against BRD4 (BRD4; pIC50 divided by HAC, HAC = 25): 0.24
- IC50 (BRD4; value of the text): 1200 nM
- reduction in capacity to inhibit BRD4 relative to PFI-1 (BRD4; vs PFI-1): around 5 fold
Compound: CCc1cc2cc(NS(=O)(=O)c3ccc(F)c(C)c3)ccc2[nH]c1=O [HF4, N-(3-ethyl-2-oxo-1,2-dihydroquinolin-6-yl)-4-fluoro-3-methylbenzenesulfonamide]
- PARP1 expression (PARP1): limited effect
- E2F2 expression (E2F2): suppressed
- expression of Rad51 (Rad51): significantly reduced
- DNA damage (comet tail length, percentage of damaged DNA) (MCF-7 cells): increase in both tail length and the percentage of damaged DNA
- Bcl-2 expression (Bcl-2): significantly downregulated

Reference: paper PMC11480993, “Combining Data-Driven and Structure-Based Approaches in Designing Dual PARP1-BRD4 Inhibitors for Breast Cancer Treatment” (Journal of Chemical Information and Modeling, 2024)
